The compounds below were run against T1, human β3 adrenergic receptor (Homo sapiens, UniProt P13945) (assay: Beta-3 agonist in vitro functional assay (cAMP production, LANCE, CHO cells stably transfected with cloned β3 receptor)). Conditions: cAMP production in CHO cells expressing human β3 AR; ranges as class symbols; read-out: Human β3 agonist functional activity.
T1 construct: expressed in transfected cells; host or cells: Chinese hamster ovary (CHO) cells, stably transfected
Assay type: cell-based
Experimental: Functional Assay: cAMP production in response to ligand is measured according to Barton, et al. (1991, Agonist-induced desensitization of D2 dopamine receptors in human Y-79 retinoblastoma cells. Mol. Pharmacol. […]) modified as follows. cAMP production is measured using a homogenous time-resolved fluorescence resonance energy transfer immunoassay (LANCE™, Perkin Elmer) according to the manufacture's instructions. Chinese hamster ovary (CHO) cells, stably transfected with the cloned β-adrenergic receptor (β1, β2 or β3) are harvested after 3 days of subculturing. Harvesting of cells is done with Enzyme-free Dissociation Media (Specialty Media). Cells are then counted and resuspended in assay buffer (Hank's Balanced salt solution supplemented with 5 mM HEPES, […]) containing a phosphodiesterase inhibitor (IBMX, 0.6 mM). The reaction is initiated by mixing 6,000 cells in 6 μL with 6 μL Alexa Fluor labeled cAMP antibody (LANCE™ kit) which is then added to an assay well containing 12 μL of compound (diluted in assay buffer to 2× final concentration). The reaction proceeds for 30 minutes at RT and is terminated by the addition of 24 ul detection buffer (LANCE™ kit). The assay plate is then incubated for 1 h at RT and time-resolved fluorescence measured on a Perkin Elmer Envision reader or equivalent. The unknown cAMP level is determined by comparing fluorescence levels to a cAMP standard curve.
The non-selective, full agonist 13-adrenergic ligand isoproterenol is used at all three receptors to determine maximal stimulation. The human β3 adrenergic receptor (AR) selective ligand (S)—N-[4-[2-[[2-hydroxy-3-(4-hydroxyphenoxy)propyl]amino]ethyl]-phenyl]-4-iodobenzenesulfonamide is used as a control in all assays. Isoproterenol is titrated at a final concentration in the assay of 10^-10 M to 10-5 and the selective ligand (S)—N-[4-[2-[[2-hydroxy-3-(4-hydroxyphenoxy)propyl]amino]ethyl]phenyl]-4-iodobenzenesulfonamide is titrated at the β3 receptor at concentration of 10^-10 M to 10^-5 M. Unknown ligands are titrated at all 3 β-adrenergic receptor subtypes at a final concentration in the assay of 10^-10 M to 10^-5 M to determine the EC50. The EC50 is defined as the concentration of compound that gives 50% activation of its own maximum. Data are analyzed using Microsoft Excel and Graphpad Prism or an internally developed data analysis software package.

T1 sequence (P13945 whole entry): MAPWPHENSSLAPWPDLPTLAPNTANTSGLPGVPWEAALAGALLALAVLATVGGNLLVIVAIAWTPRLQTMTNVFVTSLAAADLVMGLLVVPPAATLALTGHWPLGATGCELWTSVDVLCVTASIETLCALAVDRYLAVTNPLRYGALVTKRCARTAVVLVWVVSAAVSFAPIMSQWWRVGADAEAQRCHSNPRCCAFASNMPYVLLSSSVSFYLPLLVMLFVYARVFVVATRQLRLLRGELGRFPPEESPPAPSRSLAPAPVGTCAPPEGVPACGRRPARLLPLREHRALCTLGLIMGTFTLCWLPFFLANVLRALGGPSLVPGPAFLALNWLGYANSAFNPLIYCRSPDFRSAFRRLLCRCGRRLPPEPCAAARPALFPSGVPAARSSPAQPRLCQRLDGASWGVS

| Structure (SMILES) | EC50 |
| --- | --- |
| O=C(c1ccc(C[C@@H]2CC[C@H]([C@H](O)COc3ccccc3)N2)cc1)N1CCC(n2nccn2)CC1 [Example 2] | 1 to 10 nM |
| O=C(c1ccc(C[C@@H]2CC[C@H]([C@H](O)COc3ccccc3)N2)cc1)N1CCC(n2ccnn2)CC1 [Example 3] | 11 to 100 nM |
| Cn1nnnc1C1CCN(C(=O)c2ccc(C[C@@H]3CC[C@H]([C@H](O)COc4ccccc4)N3)cc2)CC1 [Example 4] | < 1 nM |
| O=C(c1ccc(C[C@@H]2CC[C@H]([C@H](O)COc3ccccc3)N2)cc1)N1C[C@@H]2[C@H](C1)[C@H]2n1cnnn1 [Example 5] | < 1 nM |
| O=C(c1ccc(C[C@@H]2CC[C@H]([C@H](O)COc3ccccc3)N2)cc1)N1CCN(Cc2ccncn2)CC1 [Example 6] | 1 to 10 nM |

Same assay, conditions: cAMP production in CHO cells expressing human β3 AR; read-out: human Beta-3 agonist functional activity

| Structure (SMILES) | EC50 |
| --- | --- |
| O=C(c1ccc(C[C@@H]2CC[C@H]([C@H](O)COc3ccccc3)N2)cc1)N1CCC(n2cccn2)CC1 [Example 1] | 1 to 10 nM |

Source: US8933102B2, “Pyrrolidine derived β3 adrenergic receptor agonists” (Merck Sharp & Dohme Corp., priority 2010, dated 2015)
